Details: for mass density: Fluid (supercritical or subcritical phases), Vibrating tube method; for vapor or sublimation pressure: Liquid

C=CCC [1-butene]
Details	mass density [kg/m3]
273.24 K, 612 kPa	619.16
273.24 K, 4987 kPa	624.98
273.24 K, 9990 kPa	631.06
273.24 K, 15004 kPa	636.64
273.24 K, 20005 kPa	641.81
273.24 K, 24989 kPa	646.61
273.24 K, 29996 kPa	651.13
273.24 K, 34991 kPa	655.38
273.24 K, 39998 kPa	659.41
278.25 K, 610 kPa	613.23
278.25 K, 4982 kPa	619.35
278.25 K, 9991 kPa	625.73
278.25 K, 14984 kPa	631.55
278.25 K, 20001 kPa	636.92
278.25 K, 24985 kPa	641.91
278.25 K, 30007 kPa	646.61
278.25 K, 34997 kPa	650.99
278.25 K, 39995 kPa	655.14
283.26 K, 610 kPa	607.22
283.26 K, 4984 kPa	613.69
283.26 K, 9995 kPa	620.39
283.26 K, 15000 kPa	626.47
283.26 K, 19989 kPa	632.05
283.26 K, 24987 kPa	637.22
283.26 K, 30013 kPa	642.08
283.26 K, 35003 kPa	646.62
283.26 K, 39990 kPa	650.88
288.27 K, 611 kPa	601.14
288.27 K, 14998 kPa	621.36
288.28 K, 4990 kPa	607.98
288.28 K, 9997 kPa	615.01
288.28 K, 19990 kPa	627.16
288.28 K, 24993 kPa	632.55
288.28 K, 30009 kPa	637.56
288.28 K, 35002 kPa	642.25
288.28 K, 39995 kPa	646.65
293.29 K, 611 kPa	594.95
293.29 K, 4994 kPa	602.2
293.29 K, 9995 kPa	609.58
293.29 K, 14989 kPa	616.2
293.29 K, 19984 kPa	622.26
293.29 K, 24990 kPa	627.84
293.29 K, 29991 kPa	633.02
293.29 K, 34994 kPa	637.87
293.29 K, 39994 kPa	642.42
298.3 K, 613 kPa	588.66
298.3 K, 4990 kPa	596.33
298.3 K, 10001 kPa	604.11
298.3 K, 14994 kPa	611.04
298.3 K, 19995 kPa	617.35
298.3 K, 24993 kPa	623.14
298.3 K, 30005 kPa	628.51
298.3 K, 35015 kPa	633.51
298.3 K, 40003 kPa	638.19
303.31 K, 661 kPa	582.33
303.31 K, 9983 kPa	598.56
303.31 K, 15001 kPa	605.85
303.31 K, 19987 kPa	612.4
303.31 K, 24994 kPa	618.42
303.31 K, 30008 kPa	623.99
303.31 K, 35004 kPa	629.15
303.32 K, 4995 kPa	590.39
303.32 K, 40006 kPa	633.97
308.32 K, 4985 kPa	584.34
308.32 K, 9991 kPa	592.99
308.32 K, 14996 kPa	600.61
308.32 K, 19992 kPa	607.46
308.32 K, 25004 kPa	613.71
308.32 K, 30007 kPa	619.45
308.32 K, 34999 kPa	624.79
308.32 K, 40000 kPa	629.76
308.33 K, 713 kPa	575.87
313.2 K, 947 kPa	569.83
313.2 K, 4992 kPa	578.34
313.2 K, 9990 kPa	587.43
313.2 K, 14997 kPa	595.4
313.2 K, 19994 kPa	602.53
313.2 K, 24994 kPa	609.01
313.2 K, 30011 kPa	614.95
313.2 K, 35009 kPa	620.44
313.2 K, 39997 kPa	625.59
318.21 K, 1037 kPa	563.26
318.21 K, 5017 kPa	572.17
318.21 K, 10015 kPa	581.78
318.21 K, 15007 kPa	590.11
318.21 K, 20018 kPa	597.56
318.21 K, 25018 kPa	604.28
318.21 K, 30002 kPa	610.4
318.21 K, 35001 kPa	616.07
318.21 K, 39996 kPa	621.35
323.21 K, 1110 kPa	556.48
323.21 K, 9982 kPa	575.95
323.21 K, 14984 kPa	584.73
323.21 K, 25001 kPa	599.51
323.21 K, 30001 kPa	605.88
323.21 K, 34994 kPa	611.74
323.21 K, 40004 kPa	617.19
323.22 K, 5006 kPa	565.82
323.22 K, 19997 kPa	592.52
328.22 K, 1187 kPa	549.53
328.22 K, 4989 kPa	559.32
328.22 K, 9998 kPa	570.14
328.22 K, 14996 kPa	579.36
328.22 K, 19992 kPa	587.47
328.22 K, 25011 kPa	594.75
328.22 K, 30003 kPa	601.33
328.22 K, 34986 kPa	607.37
328.22 K, 40001 kPa	613
333.22 K, 1276 kPa	542.42
333.22 K, 4994 kPa	552.72
333.22 K, 10001 kPa	564.22
333.22 K, 14993 kPa	573.92
333.22 K, 20000 kPa	582.4
333.22 K, 24986 kPa	589.92
333.22 K, 29987 kPa	596.76
333.22 K, 35007 kPa	603.04
333.22 K, 40005 kPa	608.82
338.22 K, 1372 kPa	535.11
338.22 K, 4996 kPa	545.96
338.22 K, 9985 kPa	558.18
338.22 K, 14991 kPa	568.42
338.22 K, 19988 kPa	577.27
338.22 K, 25002 kPa	585.14
338.22 K, 29995 kPa	592.2
338.22 K, 34993 kPa	598.67
338.22 K, 39988 kPa	604.63
343.22 K, 1477 kPa	527.59
343.22 K, 4989 kPa	538.99
343.22 K, 9987 kPa	552.06
343.22 K, 14985 kPa	562.84
343.22 K, 19995 kPa	572.12
343.22 K, 24993 kPa	580.29
343.22 K, 29995 kPa	587.63
343.22 K, 34993 kPa	594.3
343.22 K, 39996 kPa	600.44
348.22 K, 9989 kPa	545.85
348.22 K, 24986 kPa	575.42
348.23 K, 1592 kPa	519.85
348.23 K, 4984 kPa	531.84
348.23 K, 14988 kPa	557.22
348.23 K, 20000 kPa	566.94
348.23 K, 29995 kPa	583.02
348.23 K, 35000 kPa	589.94
348.23 K, 39996 kPa	596.25
353.23 K, 1715 kPa	511.85
353.23 K, 4999 kPa	524.53
353.23 K, 9991 kPa	539.5
353.23 K, 14992 kPa	551.53
353.23 K, 19991 kPa	561.68
353.23 K, 24984 kPa	570.52
353.23 K, 30003 kPa	578.41
353.23 K, 34996 kPa	585.54
353.23 K, 40004 kPa	592.05
358.23 K, 1846 kPa	503.54
358.23 K, 4995 kPa	516.91
358.23 K, 9989 kPa	533.03
358.23 K, 14984 kPa	545.76
358.23 K, 19997 kPa	556.43
358.23 K, 25002 kPa	565.63
358.23 K, 30007 kPa	573.81
358.23 K, 34991 kPa	581.14
358.23 K, 39997 kPa	587.85
363.23 K, 1991 kPa	494.93
363.23 K, 4996 kPa	509.02
363.23 K, 9987 kPa	526.43
363.23 K, 14995 kPa	539.91
363.23 K, 19993 kPa	551.05
363.23 K, 24987 kPa	560.63
363.23 K, 29994 kPa	569.1
363.23 K, 35013 kPa	576.7
363.23 K, 39993 kPa	583.59
368.23 K, 2145 kPa	485.95
368.23 K, 4994 kPa	500.81
368.23 K, 10001 kPa	519.71
368.23 K, 15000 kPa	534.01
368.23 K, 19992 kPa	545.69
368.23 K, 24989 kPa	555.66
368.23 K, 29994 kPa	564.43
368.23 K, 34993 kPa	572.27
368.23 K, 39995 kPa	579.38
373.23 K, 2313 kPa	476.57
373.23 K, 10000 kPa	512.83
373.23 K, 19991 kPa	540.27
373.23 K, 24984 kPa	550.66
373.23 K, 30002 kPa	559.76
373.23 K, 35005 kPa	567.88
373.23 K, 39997 kPa	575.19
373.24 K, 5000 kPa	492.29
373.24 K, 15001 kPa	528.02
378.23 K, 4992 kPa	483.29
378.23 K, 40004 kPa	571.03
378.24 K, 2492 kPa	466.71
378.24 K, 9989 kPa	505.75
378.24 K, 14998 kPa	521.94
378.24 K, 20001 kPa	534.83
378.24 K, 24999 kPa	545.69
378.24 K, 30000 kPa	555.11
378.24 K, 35012 kPa	563.49
383.24 K, 2679 kPa	456.23
383.24 K, 5001 kPa	473.89
383.24 K, 9994 kPa	498.55
383.24 K, 14998 kPa	515.79
383.24 K, 19999 kPa	529.35
383.24 K, 24986 kPa	540.63
383.24 K, 29986 kPa	550.4
383.24 K, 34993 kPa	559.06
383.24 K, 39986 kPa	566.81
388.24 K, 2883 kPa	445.15
388.24 K, 4993 kPa	463.82
388.24 K, 9989 kPa	491.12
388.24 K, 14987 kPa	509.52
388.24 K, 20000 kPa	523.81
388.24 K, 24990 kPa	535.58
388.24 K, 29995 kPa	545.72

Details	vapor or sublimation pressure [kPa]
289.42 K	225.85
294 K	260.86
301.73 K	329.59
306.48 K	378.14
315.34 K	484.39
321.69 K	572.17
329.51 K	695.71
337.04 K	833.9
337.68 K	845.55
345.48 K	1009.7
353.71 K	1207.9
358.53 K	1337.5
361.4 K	1416.5
366.99 K	1590.4
367.1 K	1594.8
379.44 K	2014.2
386.99 K	2310.4
